Reference: US8129401B2, “Heterocyclic compounds useful for the treatment of inflammatory and allergic disorders: process for their preparation and pharmaceutical compositions containing them” (Glenmark Pharmaceuticals S.A., priority 2004, dated 2012)
Where a name gives a salt, the structure may show the parent alone.

Molecular target: PDE4 enzyme
Experiment: Inhibition of phosphodiesterase enzymes (PDE4), [3H]cAMP hydrolysis assay
Format: biochemical
Conditions: for IC50: PDE4 inhibition, 1 μM cAMP, 34° C.; for percent inhibition at 1 μM: PDE4 inhibition at 1 μM compound

Row | IC50 [nM] | Molecule | also measured
1 | 494 | COc1ccc(C(=O)Nc2c(Cl)cncc2Cl)c2c1oc1cncnc12 [Example 02, N9-(3,5-dichloro-4-pyridyl)-6-methoxybenzo[4,5]furo[3,2-d]pyrimidine-9-carboxamide] | –
2 | 177 | COc1ccc(C(=O)Nc2c(Cl)cncc2Cl)c2c3c(n(Cc4ccccc4)c12)CCN(C(=O)OC(C)(C)C)C3 [Example 11, tert-butyl 9-(3,5-dichloro-4-pyridylcarbamoyl)-6-methoxy-5-benzyl-1,3,4,5-tetrahydro-1H-pyrido[4,3-b]indole-2-carboxylate] | –
3 | 3530 | COc1ccc(C(=O)Nc2c(Cl)cncc2Cl)c2c3c(n(Cc4ccccc4)c12)CCNC3 [Example 14, N9-(3,5-dichloro-4-pyridylcarbamoyl)-6-methoxy-5-benzyl-1,3,4,5-tetrahydro-1H-pyrido[4,3-b]indole hydrochloride] | –
4 | 2280 | COc1ccc(C(=O)Nc2c(Cl)cncc2Cl)c2c3c(n(Cc4ccccc4)c12)CCN(C)C3 [Example 16, N9-(3,5-dichloro-4-pyridylcarbamoyl)-6-methoxy-2-methyl-5-benzyl-1,3,4,5-tetrahydro-1H-pyrido[4,3-b]indole] | –
5 | 17.4 | COc1ccc(C(=O)Nc2c(Cl)cncc2Cl)c2c3c(oc12)CNCC3 [Example 20, N-(3,5-dichloropyridin-4-yl)-8-methoxy-1,2,3,4-tetrahydro[1]benzofuro[2,3-c]pyridine-5-carboxamide hydrochloride] | –
6 | 20.4 | COc1ccc(C(=O)Nc2c(Cl)cncc2Cl)c2c3c(oc12)CCNC3 [Example 21, N-(3,5-dichloropyridin-4-yl)-6-methoxy-1,2,3,4-tetrahydro[1]benzofuro[3,2-c]pyridine-9-carboxamide hydrochloride] | –
7 | 3.99 | O=C(Nc1c(Cl)c[n+]([O-])cc1Cl)c1ccc(OC(F)F)c2oc3cnncc3c12 [Example 25, 3,5-dichloro-4-(6-difluoromethoxybenzo[4,5]furo[2,3-d]pyridazine-9-ylcarboxamido)-1-pyridiniumolate] | –
8 | 2.69 | O=C(Nc1c(Cl)c[n+]([O-])cc1Cl)c1ccc(OC(F)F)c2oc3ccncc3c12 [Example 26, 3,5-dichloro-4-(6-difluoromethoxybenzo[4,5]furo[3,2-c]pyridin-9-ylcarboxamido)-1-pyridiniumolate] | –
9 | 2.42 | O=C(Nc1c(Cl)c[n+]([O-])cc1Cl)c1ccc(OC(F)F)c2oc3ccncc3c12 [Example 27, 3,5-dichloro-4-(6-difluoromethoxybenzo[4,5]furo[3,2-c]pyridin-9-ylcarboxamido)-1-pyridiniumolate sodium] | –

The next lines start with the molecule.

Row | Molecule | IC50 [nM] | also measured
10 | COc1ccc(C(=O)Nc2c(Cl)cncc2Cl)c2c1oc1cnncc12 [Example 01, N9-(3,5-dichloro-4-pyridyl)-6-methoxybenzo[4,5]furo[2,3-d]pyridazine-9-carboxamide] | 1.38 | –
11 | COc1ccc(C(=O)Nc2c(Cl)cncc2Cl)c2c1oc1ccncc12 [Example 03, N9-(3,5-dichloro-4-pyridyl)-6-methoxybenzo[4,5]furo[3,2-c]pyridine-9-carboxamide] | 0.73 | –
12 | O=C(Nc1c(Cl)cncc1Cl)c1ccc(OC(F)F)c2oc3cnncc3c12 [Example 04, N9-(3,5-dichloro-4-pyridyl)-6-difluoromethoxybenzo[4,5]furo[2,3-d]pyridazine-9-carboxamide] | 3.41 | –
13 | O=C(Nc1c(Cl)cncc1Cl)c1ccc(OC(F)F)c2oc3cnncc3c12 [Example 05, N9-(3,5-dichloro-4-pyridyl)-6-difluoromethoxybenzo[4,5]furo[2,3-d]pyridazine-9-carboxamide sodium salt] | – | IC50 (sodium salt): 4.15 nM
14 | COc1ccc(C(=O)Nc2c(Cl)cncc2Cl)c2c3c(sc12)CN(C(=O)OC(C)(C)C)CC3 [Example 07, tert-butyl 5-(3,5-dichloro-4-pyridylcarbamoyl)-8-methoxy-1,2,3,4-tetrahydrobenzo[4,5]thieno[2,3-c]pyridine-2-carboxylate] | 416 | –
15 | COc1ccc(C(=O)Nc2c(Cl)cncc2Cl)c2c3c(sc12)CNCC3 [Example 08, N5 (3,5-dichloro-4-pyridyl)-8-methoxy-1,2,3,4-tetrahydrobenzo[4,5]thieno[2,3-c]pyridine-5-carboxamide hydrochloride] | – | percent inhibition at 1 μM: 31.75% at 1 μM
16 | COc1ccc(C(=O)Nc2c(Cl)cncc2Cl)c2c3c(n(C)c12)CCN(C(=O)OC(C)(C)C)C3 [Example 10, tert-butyl 9-(3,5-dichloro-4-pyridylcarbamoyl)-6-methoxy-5-methyl-1,3,4,5-tetrahydro-1H-pyrido[4,3-b]indole-2-carboxylate] | – | percent inhibition at 1 μM: 27.74% at 1 μM
17 | COc1ccc(C(=O)Nc2c(Cl)cncc2Cl)c2c3c(n(CC4CC4)c12)CCN(C(=O)OC(C)(C)C)C3 [Example 12, tert-butyl 9-(3,5-dichloro-4-pyridylcarbamoyl)-6-methoxy-5-cyclopropylmethyl-1,3,4,5-tetrahydro-1H-pyrido[4,3-b]indole-2-carboxylate] | – | percent inhibition at 1 μM: 48.79% at 1 μM
18 | COc1ccc(C(=O)Nc2c(Cl)cncc2Cl)c2c3c(n(C)c12)CCN(C)C3 [Example 15, N9-(3,5-dichloro-4-pyridylcarbamoyl)-6-methoxy-2,5-methyl-1,3,4,5-tetrahydro-1H-pyrido[4,3-b]indole] | – | percent inhibition at 1 μM: 12.90% at 1 μM
19 | COc1ccc(C(=O)Nc2ccncc2)c2c3c(n(C)c12)CCN(C(=O)OC(C)(C)C)C3 [Example 17, tert-butyl 9-(4-pyridinylcarbamoyl)-6-methoxy-5-methyl-1,3,4,5-tetrahydro-1H-pyrido[4,3-b]indole-2-carboxylate] | – | percent inhibition at 1 μM: 33.67% at 1 μM
20 | COc1ccc(C(=O)Nc2c(Cl)cncc2Cl)c2c1oc1cnncc12 [Example 18, N9-(3,5-dichloro-4-pyridyl)-6-methoxybenzo[4,5]furo[2,3-d]pyridazine-9-carboxamide sodium salt] | – | IC50 (sodium salt): 4.08 nM
21 | CCOC(=O)N1CCc2c(oc3c(OC)ccc(C(=O)Nc4c(Cl)cncc4Cl)c23)C1 [Example 19, N-(3,5-dichloropyridin-4-yl)-2-(ethoxycarbonyl)-8-methoxy-1,2,3,4-tetrahydro[1]benzofuro[2,3-c]pyridine-5-carboxamide] | 7.53 | –
22 | COc1ccc(C(=O)Nc2c(Cl)cncc2Cl)c2c3c(n(C)c12)C(=O)N(C)CC3 [Example 22, N-(3,5-dichloropyridin-4-yl)-2,9-dimethyl-8-methoxy-1-oxo-1,2,3,4-tetrahydro-β-carboline-5-carboxamide] | – | percent inhibition at 1 μM: 34.54% at 1 μM
23 | O=C(Nc1c(Cl)cncc1Cl)c1ccc(OC(F)F)c2oc3ccncc3c12 [Example 23, N9-(3,5-dichloro-4-pyridyl)-6-difluoromethoxybenzo[4,5]furo[3,2-c]pyridine-9-carboxamide] | 0.25 | –
24 | O=C(Nc1c(Cl)cncc1Cl)c1ccc(OC(F)F)c2oc3ccncc3c12 [Example 24, N9-(3,5-dichloro-4-pyridyl)-6-difluoromethoxybenzo[4,5]furo[3,2-c]pyridine-9-carboxamide sodium] | – | IC50 (sodium): 0.02 nM
25 | N9-(3,5-dichloro-4-pyridylcarbamoyl)-6-methoxy-5-methyl-1,3,4,5-tetrahydro-1H-pyrido[4,3-b]indole hydrochloride [Example 13] | – | percent inhibition at 1 μM: 20.99% at 1 μM
